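These data come from cells grown in 96-well plates and exposed to compound for 48 hours at five concentrations. GI50 = concentration required for 50% inhibition of growth. Definition used: TGI = concentration required for complete inhibition of growth.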
How the values were obtained:
Assay in all cases: NCI anticancer screen, dose series, 48 h
OVCAR-8 ovarian = system: OVCAR-8 ovarian
A498 renal = system: A498 renal
U251 CNS = system: U251 CNS
NCI-H460 lung = system: NCI-H460 lung
LOX IMVI melanoma = system: LOX IMVI melanoma
K-562 leukemia = system: K-562 leukemia
HCT-15 colon = system: HCT-15 colon
HT29 colon = system: HT29 colon
UO-31 renal = system: UO-31 renal
BT-549 breast = system: BT-549 breast
RPMI-8226 leukemia = system: RPMI-8226 leukemia
MOLT-4 leukemia = system: MOLT-4 leukemia
SK-OV-3 ovarian = system: SK-OV-3 ovarian
SK-MEL-2 melanoma = system: SK-MEL-2 melanoma
SNB-19 CNS = system: SNB-19 CNS
UACC-62 melanoma = system: UACC-62 melanoma
RXF 393 renal = system: RXF 393 renal
CAKI-1 renal = system: CAKI-1 renal
SW-620 colon = system: SW-620 colon
HOP-92 NSCLC = system: HOP-92 NSCLC
MALME-3M melanoma = system: MALME-3M melanoma
NCI-H23 lung = system: NCI-H23 lung
CCRF-CEM leukemia = system: CCRF-CEM leukemia
T-47D breast = system: T-47D breast
HCC-2998 colon = system: HCC-2998 colon
PC-3 prostate = system: PC-3 prostate
UACC-257 melanoma = system: UACC-257 melanoma
SN12C renal = system: SN12C renal

With O=C(NN=C1CCCCC1)c1[nH]c2ccc(F)cc2c1-c1ccccc1 the GI50 (OVCAR-8 ovarian) was 51.4 µM, the TGI (OVCAR-8 ovarian) was greater than 100 µM and the GI50 (A498 renal) was 38.1 µM. The TGI (A498 renal) was greater than 100 µM, the GI50 (U251 CNS) was 17.8 µM and the TGI (U251 CNS) was 37.7 µM. For the same compound, the GI50 (NCI-H460 lung) was 22 µM, the TGI (NCI-H460 lung) was 50.8 µM and the GI50 (LOX IMVI melanoma) was 25.2 µM. It also gave a TGI (LOX IMVI melanoma) greater than 100 µM, a GI50 (K-562 leukemia) of 5.91 µM and a TGI (K-562 leukemia) of 26.6 µM. The GI50 (HCT-15 colon) was 15.6 µM, the TGI (HCT-15 colon) was 50.9 µM and the GI50 (HT29 colon) was 20.9 µM. The TGI (HT29 colon) was 46.5 µM, the GI50 (UO-31 renal) was 42.6 µM and the TGI (UO-31 renal) was greater than 100 µM. For the same compound, the GI50 (BT-549 breast) was 57.4 µM, the TGI (BT-549 breast) was greater than 100 µM and the GI50 (RPMI-8226 leukemia) was 40.5 µM. It also gave a TGI (RPMI-8226 leukemia) greater than 100 µM, a GI50 (MOLT-4 leukemia) of 22.5 µM and a TGI (MOLT-4 leukemia) of 61.9 µM. For the same compound, the GI50 (SK-OV-3 ovarian) was 35.1 µM, the TGI (SK-OV-3 ovarian) was greater than 100 µM and the GI50 (SK-MEL-2 melanoma) was greater than 100 µM. The TGI (SK-MEL-2 melanoma) was greater than 100 µM, the GI50 (SNB-19 CNS) was 47.3 µM and the TGI (SNB-19 CNS) was greater than 100 µM. It also gave a GI50 (UACC-62 melanoma) of 38.6 µM, a TGI (UACC-62 melanoma) greater than 100 µM and a GI50 (RXF 393 renal) of 98.5 µM. The TGI (RXF 393 renal) was greater than 100 µM, the GI50 (CAKI-1 renal) was 34.5 µM and the TGI (CAKI-1 renal) was greater than 100 µM. For the same compound, the GI50 (SW-620 colon) was 46.9 µM, the TGI (SW-620 colon) was greater than 100 µM and the GI50 (HOP-92 NSCLC) was 50.9 µM. It also gave a TGI (HOP-92 NSCLC) greater than 100 µM, a GI50 (MALME-3M melanoma) greater than 100 µM and a TGI (MALME-3M melanoma) greater than 100 µM. It also gave a GI50 (NCI-H23 lung) of 33.5 µM, a TGI (NCI-H23 lung) greater than 100 µM and a GI50 (CCRF-CEM leukemia) of 17.7 µM. For the same compound, the TGI (CCRF-CEM leukemia) was greater than 100 µM, the GI50 (T-47D breast) was 46.8 µM and the TGI (T-47D breast) was greater than 100 µM. For the same compound, the GI50 (HCC-2998 colon) was 17.4 µM, the TGI (HCC-2998 colon) was 36.4 µM and the GI50 (PC-3 prostate) was 52.1 µM. For the same compound, the TGI (PC-3 prostate) was greater than 100 µM, the GI50 (UACC-257 melanoma) was 59.1 µM and the TGI (UACC-257 melanoma) was greater than 100 µM. For the same compound, the GI50 (SN12C renal) was 28.6 µM and the TGI (SN12C renal) was 84.8 µM.

Source: PubChem BioAssay (NCI)
